The target of test [1] is T1, human TRPV1 receptor (hTRPV1) (Homo sapiens (Human), UniProt Q8NER1). As to the kind of experiment: Acid activation assay (pH 5.0, FLIPR intracellular Ca2+). The test is classed as cell-based. The conditions noted are these: Table 1, 37.5 μM antagonist, percentage of the maximal pH 5.0-induced response remaining; for remaining activity at 37.5 µM: read-out: hTRPV1 H+ (max % remain). The method, then: Dulbecco's modified Eagle's medium (DMEM) with 4.5 mg/mL D-glucose, fetal bovine serum, L-glutamine, and 2-morpholinoethanesulfonic acid (MES) were purchased from Sigma-Aldrich Co. (St. Louis, Mo.). Dulbecco's phosphate-buffered saline (DPBS) with Ca^2+, Mg^2+, and 1 mg/mL D-glucose (pH 7.4), Geneticin®, 0.25% trypsin-1 mM EDTA, and penicillin-streptomycin were purchased from Invitrogen Corp. (Carlsbad, Calif.). The FLIPR® Calcium 4 assay kit was purchased from Molecular Devices (Sunnyvale, Calif.).
T1 sequence (Q8NER1 whole entry): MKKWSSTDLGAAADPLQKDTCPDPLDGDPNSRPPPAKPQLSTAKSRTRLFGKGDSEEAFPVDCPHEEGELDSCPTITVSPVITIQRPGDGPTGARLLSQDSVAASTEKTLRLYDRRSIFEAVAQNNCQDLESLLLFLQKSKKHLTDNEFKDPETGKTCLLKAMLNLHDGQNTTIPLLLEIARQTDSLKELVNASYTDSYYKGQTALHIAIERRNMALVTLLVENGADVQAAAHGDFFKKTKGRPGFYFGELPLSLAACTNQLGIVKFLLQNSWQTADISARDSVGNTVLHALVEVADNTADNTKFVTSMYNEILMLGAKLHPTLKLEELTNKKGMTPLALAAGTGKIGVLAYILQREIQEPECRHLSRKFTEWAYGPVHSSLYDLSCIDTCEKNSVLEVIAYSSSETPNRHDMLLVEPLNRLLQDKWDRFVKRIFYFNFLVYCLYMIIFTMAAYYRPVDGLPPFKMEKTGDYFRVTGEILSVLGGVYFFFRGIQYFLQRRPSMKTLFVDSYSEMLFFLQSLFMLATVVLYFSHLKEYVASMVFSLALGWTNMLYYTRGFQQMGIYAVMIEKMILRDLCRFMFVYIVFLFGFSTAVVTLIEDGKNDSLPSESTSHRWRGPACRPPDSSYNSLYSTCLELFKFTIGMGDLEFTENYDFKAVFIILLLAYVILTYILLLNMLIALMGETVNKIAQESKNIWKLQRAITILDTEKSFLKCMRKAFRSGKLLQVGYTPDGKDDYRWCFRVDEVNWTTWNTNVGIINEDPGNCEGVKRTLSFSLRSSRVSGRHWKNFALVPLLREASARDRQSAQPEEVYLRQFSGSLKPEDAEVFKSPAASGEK
The cDNAs for the human TRPV1 receptor (hTRPV1) were isolated by reverse transcriptase-polymerase chain reaction (RT-PCR) from human small intestine poly A+RNA supplied by Clontech (Palo Alto, Calif.) using primers designed surrounding the initiation and termination codons identical to the published sequences (Hayes et al. Pain 2000, 88, 205-215). The resulting cDNA PCR products were subcloned into pCIneo mammalian expression vector (Promega) and fully sequenced using fluorescent dye-terminator reagents (Prism, Perkin-Elmer Applied Biosystems Division) and a Perkin-Elmer Applied Biosystems Model 373 DNA sequencer or Model 310 genetic analyzer. Expression plasmids encoding the hTRPV1 cDNA were transfected individually into 1321N1 human astrocytoma cells using Lipofectamine. Forty-eight hours after transfection, the neomycin-resistant cells were selected with growth medium containing 800 μg/mL Geneticin (Gibco BRL). Surviving individual colonies were isolated and screened for TRPV1 receptor activity. Cells expressing recombinant homomeric TRPV1 receptors were maintained at 37° C. in DMEM containing 4 mM L-glutamine, 300 μg/mL G418 (Cal-biochem) and 10% fetal bovine serum under a humidified 5% CO2 atmosphere.
The functional activity of compounds at the TRPV1 receptor was determined by measurement of intracellular Ca^2+ levels ([Ca^2+]i) using the Fluorescence Imaging Plate Reader (FLIPR)^TETRA®. All compounds were tested over a 12-point one-half-log concentration range. Compound stocks, 10 mM, were prepared in DMSO, and diluted serially across a 384-well plate using a Bravo BenchCel workstation (Agilent Technologies, Santa Clara, Calif.).
On the day of the experiment growth medium was removed, and the no-wash FLIPR® Calcium-4 dye (λEX=470-495 nm, λEM=515-575 nm) was added to each well using the Multidrop® dispenser. Cells were incubated for 90-120 minutes in the dark at 25° C. Test compounds were dissolved in DMSO, and plates were prepared using an Agilent Bravo workstation (Agilent Technologies Inc., Santa Clara, Calif.). Compounds were added to the cells 3 minutes prior to the addition of a pH 5.0 solution. Reagents were delivered at a rate of 40 μL/sec, and the final assay volume was 80 μL. Acidic pH solutions were prepared by titration of DPBS/MES with 1 N HCl. The intensity of the fluorescence was captured and digitally transferred to an interfaced PC.

In test [2] the target is T1, human TRPV1 receptor (hTRPV1). The test can be described thus: Capsaicin activation assay (FLIPR intracellular Ca2+). It counts as cell-based. Conditions: Table 1; inhibition of capsaicin-induced intracellular Ca2+ increase, HEK293 cells expressing human TRPV1; read-out: hTRPV1 cap IC50. The method, then: Dulbecco's modified Eagle medium (D-MEM) (with 4.5 mg/mL glucose) and fetal bovine serum were obtained from Hyclone Laboratories, Inc. (Logan, Utah). Dulbecco's phosphate-buffered saline (D-PBS) (with 1 mg/mL glucose and 3.6 mg/l Na pyruvate, without phenol red), L-glutamine, hygromycin B, and Lipofectamine® were obtained from Life Technologies (Grand Island, N.Y.). G418 sulfate was obtained from Calbiochem-Novabiochem Corp. (San Diego, Calif.). Capsaicin (8-methyl-N-vanillyl-6-nonenamide) was obtained from Sigma-Aldrich, Co. (St. Louis, Mo.). Fluo-4 AM (N-[4-[6-[(acetyloxy)methoxy]-2,7-difluoro-3-oxo-3H-xanthen-9-yl]-2-[2-[2-[bis[2-[(acetyloxy)methoxy]-2-oxyethyl]amino]-5-methyl phenoxy]ethoxy]phenyl]-N-[2-[(acetyloxy)methoxy]-2-oxyethyl]-glycine, (acetyloxy)methyl ester) was purchased from Molecular Probes (Eugene, Oreg.). […]
The functional activity of compounds at the TRPV1 receptor was determined by measurement of intracellular Ca^2+ levels ([Ca^2+]i) using the Fluorescence Imaging Plate Reader (FLIPR)^TETRA®. All compounds were tested over a 12-point one-third-log concentration range. Compound stocks, 10 mM, were prepared in DMSO, and diluted serially across a 384-well plate using a Bravo BenchCel workstation (Agilent Technologies, Santa Clara, Calif.). A stock concentration of capsaicin (10 mM) was made in DMSO, and diluted in D-PBS to a final concentration of 200 nM (4×). On the day prior to the experiment, recombinant HEK293 cells that stably express human TRPV1 were removed from tissue culture flasks and plated in growth medium into black-walled clear-bottom 384-well Biocoat™ poly-D-lysine assay plates (BD Biosciences, Bedford, Mass.) using a Multidrop® dispenser (ThermoScientific, Waltham, Mass.). On the day of the experiment, growth medium was removed, and the no-wash FLIPR® Calcium-4 dye (λEX=470-495 nm, λEM=515-575 nm; Molecular Devices, Sunnyvale, Calif.) was added to each well using the Multidrop® dispenser. Cells were incubated for 90-120 minutes in the dark at room temperature. Test compounds were added to the cells 3 minutes prior to the addition of 200 nM capsaicin (4×), and the final assay volume was 80 μL. Fluorescence readings were made at 1 to 5 second intervals over the course of the experimental run. The peak increase in relative fluorescence units (minus baseline) was calculated, and expressed as a percentage of the 50 nM capsaicin (control) response.

Structures are written as SMILES.

What is called IC50 is the midpoint of a concentration-inhibition curve.

For the compound `O=C(Nc1cccc2[nH]ncc12)N[C@H]1CC[C@@H](c2ccccn2)C1` (relative stereo) [Example 38, 1-(1H-indazol-4-yl)-3-[cis-3-(pyridin-2-yl)cyclopentyl]urea], the remaining activity at 37.5 µM in test [1] was determined as 53%. On the same count and under the same terms, next, `O=C(Nc1cccc2[nH]ncc12)N[C@H]1CC[C@H](c2ccccn2)C1` (relative stereo) [Example 39, 1-(1H-indazol-4-yl)-3-[trans-3-(pyridin-2-yl)cyclopentyl]urea]: 33%.

Consider `O=C(Nc1cccc2[nH]ncc12)N[C@H]1CC[C@@](O)(c2ccccc2)C1` (relative stereo) [Example 58, 1-[(trans)-3-hydroxy-3-phenylcyclopentyl]-3-(1H-indazol-4-yl)urea], for which the IC50 in test [2] was 8640 nM. The “hTRPV1 H+ (max % remain)” value in test [1] was found to be 53%. Take `Cc1csc([C@H]2CC[C@H](NC(=O)Nc3cccc4[nH]ncc34)C2)n1` (relative stereo) [Example 119, 1-(1H-indazol-4-yl)-3-[(trans)-3-(4-methyl-1,3-thiazol-2-yl)cyclopentyl]urea]: in test [1], the remaining activity at 37.5 µM was found to be 18%. In the case of `O=C(Nc1cccc2[nH]ncc12)N[C@@H]1CC[C@@H](c2nc(C(F)(F)F)cs2)C1` (relative stereo) [Example 129, 1-(1H-indazol-4-yl)-3-{(1R*,3R*)-3-[4-(trifluoromethyl)-1,3-thiazol-2-yl]cyclopentyl}urea], in test [1], the remaining activity at 37.5 µM was determined as 6%. The same measure, in the same setting: next, `O=C(Nc1cccc2[nH]ncc12)N[C@@H]1CC[C@H](c2nc(C(F)(F)F)cs2)C1` (relative stereo) [Example 130, 1-(1H-indazol-4-yl)-3-{(1R*,3S*)-3-[4-(trifluoromethyl)-1,3-thiazol-2-yl]cyclopentyl}urea]: 5%. Same read-out and setting: next, `Cc1csc([C@@H]2CC[C@H](NC(=O)Nc3cccc4[nH]ncc34)C2)n1` (single isomer, unassigned) [Example 120, 1-(1H-indazol-4-yl)-3-[(1S*,3R*)-3-(4-methyl-1,3-thiazol-2-yl)cyclopentyl]urea]: 54%. Still for that read-out and setting: the same measure for `Cc1csc([C@H]2CC[C@@H](NC(=O)Nc3cccc4[nH]ncc34)C2)n1` (single isomer, unassigned) [Example 121, 1-(1H-indazol-4-yl)-3-[(1R*,3S*)-3-(4-methyl-1,3-thiazol-2-yl)cyclopentyl]urea]: 10%. With `Cc1coc([C@@H]2CC[C@H](NC(=O)Nc3cccc4[nH]ncc34)C2)n1` (single isomer, unassigned) [Example 122, 1-(1H-indazol-4-yl)-3-[(1S*,3R*)-3-(4-methyl-1,3-oxazol-2-yl)cyclopentyl]urea], in test [2], the IC50 stood at 20500 nM. The remaining activity at 37.5 µM in test [1] stood at 68%. Taken in the same sequence, the figures for `Cc1coc([C@H]2CC[C@@H](NC(=O)Nc3cccc4[nH]ncc34)C2)n1` (single isomer, unassigned) [Example 123, 1-(1H-indazol-4-yl)-3-[(1R*,3S*)-3-(4-methyl-1,3-oxazol-2-yl)cyclopentyl]urea] were 1110 nM and 29%. With `Cc1cc2c(NC(=O)N[C@H]3CC[C@@H](c4ncc(C)o4)C3)c(F)ccc2cn1` (stereo in doubt) [Example 125, 1-(6-fluoro-3-methylisoquinolin-5-yl)-3-[(1S*,3R*)-3-(5-methyl-1,3-oxazol-2-yl)cyclopentyl]urea], the remaining activity at 37.5 µM in test [1] is 41%. As for `Cc1cnc([C@@H]2CC[C@H](NC(=O)Nc3cccc4[nH]ncc34)C2)o1` (stereo in doubt) [Example 126, 1-(1H-indazol-4-yl)-3-[(1S*,3R*)-3-(5-methyl-1,3-oxazol-2-yl)cyclopentyl]urea], the remaining activity at 37.5 µM in test [1] stood at 23%. Still for that read-out and setting: next, `Cc1cc2c(NC(=O)N[C@@H]3CC[C@H](c4ncc(C)o4)C3)c(F)ccc2cn1` (stereo in doubt) [Example 127, 1-(6-fluoro-3-methylisoquinolin-5-yl)-3-[(1R*,3S*)-3-(5-methyl-1,3-oxazol-2-yl)cyclopentyl]urea]: 54%; `Cc1cnc([C@H]2CC[C@@H](NC(=O)Nc3cccc4[nH]ncc34)C2)o1` (stereo in doubt) [Example 128, 1-(1H-indazol-4-yl)-3-[(1R*,3S*)-3-(5-methyl-1,3-oxazol-2-yl)cyclopentyl]urea]: 54%.

For `O=C(Nc1cccc2c1C[C@H](O)CC2)N[C@H]1CC[C@H](c2ccccc2)C1` [Compound A, 1-[(7R)-7-hydroxy-5,6,7,8-tetrahydronaphthalen-1-yl]-3-[(1S,3S)-3-phenylcyclopentyl]urea, reference compound], the IC50 in test [2] stood at 4 nM. Further, the remaining activity at 37.5 µM in test [1] worked out at 2%. The like results for `O=C(Nc1cccc2c1C[C@@H](O)CC2)N[C@H]1CC[C@@H](c2ccccc2)C1` [Compound B, 1-[(7S)-7-hydroxy-5,6,7,8-tetrahydronaphthalen-1-yl]-3-[(1S,3R)-3-phenylcyclopentyl]urea, reference compound] were, in that order, 6 nM and 1%. Take `O=C(Nc1cccc2c1C[C@@H](O)CC2)N[C@@H]1CC[C@H](c2ccccc2)C1` [Compound C, 1-[(7S)-7-hydroxy-5,6,7,8-tetrahydronaphthalen-1-yl]-3-[(1R,3S)-3-phenylcyclopentyl]urea, reference compound]: the IC50 in test [2] worked out at 5 nM. Besides, the remaining activity at 37.5 µM in test [1] turned out to be 2%.

In the case of `O=C(Nc1cccc2c1C[C@@H](O)CC2)N[C@H]1CC[C@H](c2ccccc2)C1` [Compound D, 1-[(7S)-7-hydroxy-5,6,7,8-tetrahydronaphthalen-1-yl]-3-[(1S,3S)-3-phenylcyclopentyl]urea, reference compound], the concentration for half-maximal inhibition (IC50) in test [2] worked out at 13 nM. The remaining activity at 37.5 µM in test [1] was 2%. The like results for `O=C(Nc1cccc2c1C[C@H](O)CC2)N[C@@H]1CC[C@@H](c2ccccc2)C1` [Compound E, 1-[(7R)-7-hydroxy-5,6,7,8-tetrahydronaphthalen-1-yl]-3-[(1R,3R)-3-phenylcyclopentyl]urea, reference compound] were, in that order, 5 nM and 1%. In the case of `O=C(Nc1cccc2[nH]ncc12)N[C@@H]1CCC(c2nc(C(F)(F)F)cs2)C1` (stereo partly drawn) [Example 131, 1-(1H-indazol-4-yl)-3-{(1R)-3-[4-(trifluoromethyl)-1,3-thiazol-2-yl]cyclopentyl}urea], the remaining activity at 37.5 µM in test [1] turned out to be 1%.
